# Measurements as given in PubChem BioAssay AID1259407 (Chemical Carcinogenesis Research Information System (CCRIS), 2018).
# Active and inactive are the calls of the source. The rule behind the calls is not given here.
# Test system: CCRIS mutagenicity, Ames/micronucleus/aberration tests
# Test: CCRIS mutagenicity studies
compound,measurement,setting,value
CC(=O)Nc1ccc2c(c1)Cc1ccccc1-2,mutagenic call,"Test System: AMES SALMONELLA TYPHIMURIUM, Strain/Indicator: TA1537, Metabolic Activation: NONE, Method: STANDARD PLATE",inactive; negative
same,mutagenic call,"Test System: AMES SALMONELLA TYPHIMURIUM, Strain/Indicator: TA1537, Metabolic Activation: RAT, LIVER, S-9, AROCLOR 1254, Method: SPIRAL ASSAY",inactive; negative
same,mutagenic call,"Test System: AMES SALMONELLA TYPHIMURIUM, Strain/Indicator: TA1537, Metabolic Activation: RAT, LIVER, S-9, PHENOBARBITAL, Method: STANDARD PLATE",active; positive
same,mutagenic call,"Test System: AMES SALMONELLA TYPHIMURIUM, Strain/Indicator: TA1538, Metabolic Activation: NONE, Method: STANDARD PLATE",inactive; negative
same,mutagenic call,"Test System: AMES SALMONELLA TYPHIMURIUM, Strain/Indicator: TA1538, Metabolic Activation: RAT, LIVER, CYTOSOL, 2-ACETYLAMINOFLUORENE, Method: STANDARD PLATE",active; positive
same,mutagenic call,"Test System: AMES SALMONELLA TYPHIMURIUM, Strain/Indicator: TA1538, Metabolic Activation: RAT, LIVER, CYTOSOL, AROCLOR 1254, Method: STANDARD PLATE",active; positive
same,mutagenic call,"Test System: AMES SALMONELLA TYPHIMURIUM, Strain/Indicator: TA1538, Metabolic Activation: RAT, LIVER, CYTOSOL, Method: STANDARD PLATE",active; positive
same,mutagenic call,"Test System: AMES SALMONELLA TYPHIMURIUM, Strain/Indicator: TA1538, Metabolic Activation: RAT, LIVER, MICROSOMES, 2-ACETYLAMINOFLUORENE, Method: STANDARD PLATE",active; positive
same,mutagenic call,"Test System: AMES SALMONELLA TYPHIMURIUM, Strain/Indicator: TA1538, Metabolic Activation: RAT, LIVER, MICROSOMES, AROCLOR 1254, Method: STANDARD PLATE",active; positive
same,mutagenic call,"Test System: AMES SALMONELLA TYPHIMURIUM, Strain/Indicator: TA1538, Metabolic Activation: RAT, LIVER, MICROSOMES, Method: STANDARD PLATE",active; positive
same,mutagenic call,"Test System: AMES SALMONELLA TYPHIMURIUM, Strain/Indicator: TA1538, Metabolic Activation: RAT, LIVER, S-9, AROCLOR 1254, Method: STANDARD PLATE",active; positive
same,mutagenic call,"Test System: AMES SALMONELLA TYPHIMURIUM, Strain/Indicator: TA1538, Metabolic Activation: RAT, LIVER, S-9, KC500 OR PHENOBARBITAL, Method: LIQUID SUSPENSION",active; positive
same,mutagenic call,"Test System: AMES SALMONELLA TYPHIMURIUM, Strain/Indicator: TA1538, Metabolic Activation: RAT, LIVER, S-9, PHENOBARBITAL, Method: STANDARD PLATE",active; positive
same,mutagenic call,"Test System: AMES SALMONELLA TYPHIMURIUM, Strain/Indicator: YG1024, Metabolic Activation: HUMAN, HEPATOMA CELLS, BENZO[A]ANTHRACENE, Method: PREINCUBATION",active; positive
same,mutagenic call,"Test System: AMES SALMONELLA TYPHIMURIUM, Strain/Indicator: YG1024, Metabolic Activation: HUMAN, HEPATOMA CELLS, Method: PREINCUBATION",active; positive
same,mutagenic call,"Test System: AMES SALMONELLA TYPHIMURIUM, Strain/Indicator: YG1024, Metabolic Activation: RAT, LIVER, S-9, AROCLOR 1254, Method: PREINCUBATION",active; positive
same,mutagenic call,"Test System: AMES SALMONELLA TYPHIMURIUM, Strain/Indicator: YG1024, Metabolic Activation: RAT, LIVER, S-9, Method: PREINCUBATION",active; positive
same,mutagenic call,"Test System: CHINESE HAMSTER OVARY, Strain/Indicator: AS52/6-THIOGUANINE, Metabolic Activation: NONE",inactive; negative
same,mutagenic call,"Test System: CHINESE HAMSTER OVARY, Strain/Indicator: AS52/6-THIOGUANINE, Metabolic Activation: RAT LIVER S-9, 2-ACETYLAMINOFLUORENE",active; positive
same,mutagenic call,"Test System: CHINESE HAMSTER OVARY, Strain/Indicator: CHO-K1-BH4 (HGPRT), Metabolic Activation: RAT, LIVER, S-9, AROCLOR, Method: SUSPENSION/PLATE",active; positive
same,mutagenic call,"Test System: CHINESE HAMSTER V-79, Strain/Indicator: V-79/6-THIOGUANINE, Metabolic Activation: HAMSTER, LIVER, S-9, AROCLOR 1254, Method: SUSPENSION/PLATE",inactive; negative
same,mutagenic call,"Test System: CHINESE HAMSTER V-79, Strain/Indicator: V-79/6-THIOGUANINE, Metabolic Activation: NONE, Method: SUSPENSION/PLATE",inactive; negative
same,mutagenic call,"Test System: CHINESE HAMSTER V-79, Strain/Indicator: V-79/6-THIOGUANINE, Metabolic Activation: RAT, LIVER, S-9, PHENOBARBITAL AND BETA-NAPHTHOFLAVONE, Method: SUSPENSION/PLATE",inactive; negative
same,mutagenic call,"Test System: E. COLI, Strain/Indicator: WP2 UVRA, Metabolic Activation: HAMSTER, LIVER, S-9, Method: STANDARD PLATE",inactive; negative
same,mutagenic call,"Test System: E. COLI, Strain/Indicator: WP2 UVRA, Metabolic Activation: MOUSE, LIVER, S-9, Method: STANDARD PLATE",inactive; negative
same,mutagenic call,"Test System: E. COLI, Strain/Indicator: WP2 UVRA, Metabolic Activation: NONE, Method: STANDARD PLATE",inactive; negative
same,mutagenic call,"Test System: E. COLI, Strain/Indicator: WP2 UVRA, Metabolic Activation: RAT, LIVER, S-9, AROCLOR 1254, Method: STANDARD PLATE",inactive; negative
same,mutagenic call,"Test System: E. COLI, Strain/Indicator: WP2 UVRA, Metabolic Activation: RAT, LIVER, S-9, Method: STANDARD PLATE",inactive; negative
same,mutagenic call,"Test System: MOUSE LYMPHOMA, Strain/Indicator: L5178Y (TK+/TK-), Metabolic Activation: NONE, Method: SUSPENSION/PLATE",active; positive
same,mutagenic call,"Test System: MOUSE LYMPHOMA, Strain/Indicator: L5178Y (TK+/TK-), Metabolic Activation: RAT, LIVER, S-9, AROCLOR 1254, Method: SUSPENSION/PLATE",active; positive
same,mutagenic call,"Test System: MOUSE LYMPHOMA, Strain/Indicator: L5178Y (TK+/TK-), Metabolic Activation: RAT, LIVER, S-9, Method: SUSPENSION/PLATE",active; positive
same,mutagenic call,"Test System: UDS GUINEA PIG HEPATOCYTES, Strain/Indicator: THY INCORP, Metabolic Activation: NONE, Method: AUTORADIOGRAPHY",active; positive
same,mutagenic call,"Test System: UDS GUINEA PIG HEPATOCYTES, Strain/Indicator: THY INCORP, Metabolic Activation: NONE, Method: LIQUID SCINTILLATION COUNTING",active; positive
same,mutagenic call,"Test System: UDS HAMSTER HEPATOCYTES, Strain/Indicator: THY INCORP, Metabolic Activation: NONE, Method: LIQUID SCINTILLATION COUNTING",active; positive
same,mutagenic call,"Test System: UDS HUMAN FIBROBLASTS, Strain/Indicator: THY INCORP (NON-S-PHASE), Metabolic Activation: NONE, Method: AUTORADIOGRAPHY",active; positive
same,mutagenic call,"Test System: UDS HUMAN HEPATOCYTES, Strain/Indicator: THY INCORP, Metabolic Activation: NONE, Method: AUTORADIOGRAPHY",active; positive
same,mutagenic call,"Test System: UDS MONKEY HEPATOCYTES, Strain/Indicator: THY INCORP, Metabolic Activation: NONE, Method: AUTORADIOGRAPHY",inactive; negative
same,mutagenic call,"Test System: UDS MOUSE HEPATOCYTES, Strain/Indicator: THY INCORP, Metabolic Activation: NONE, Method: LIQUID SCINTILLATION COUNTING",inactive; negative
same,mutagenic call,"Test System: UDS RAT HEPATOCYTES, Strain/Indicator: BROMODEOXYURIDINE INCORP, Metabolic Activation: NONE, Method: FLOW CYTOMETRIC ANALYSIS",active; positive
same,mutagenic call,"Test System: UDS RAT HEPATOCYTES, Strain/Indicator: THY INCORP, Metabolic Activation: AROCLOR 1254, Method: AUTORADIOGRAPHY",active; positive
same,mutagenic call,"Test System: UDS RAT HEPATOCYTES, Strain/Indicator: THY INCORP, Metabolic Activation: NONE, Method: AUTORADIOGRAPHY",active; positive
same,mutagenic call,"Test System: UDS RAT HEPATOCYTES, Strain/Indicator: THY INCORP, Metabolic Activation: NONE, Method: AUTORADIOGRAPHY (SERUM-FREE MEDIA)",active; positive
same,mutagenic call,"Test System: UDS RAT HEPATOCYTES, Strain/Indicator: THY INCORP, Metabolic Activation: NONE, Method: IN VIVO",active; positive
same,mutagenic call,"Test System: UDS RAT HEPATOCYTES, Strain/Indicator: THY INCORP, Metabolic Activation: NONE, Method: LIQUID SCINTILLATION",active; positive
same,mutagenic call,"Test System: UDS RAT HEPATOCYTES, Strain/Indicator: THY INCORP, Metabolic Activation: NONE, Method: LIQUID SCINTILLATION COUNTING",active; positive
same,mutagenic call,"Test System: UDS RODENT HEPATOCYTES, Strain/Indicator: THY INCORP (NON-S-PHASE), Metabolic Activation: NONE, Method: AUTORADIOGRAPHY",active; positive
same,mutagenic call,"Test System: UDS RODENT HEPATOCYTES, Strain/Indicator: THY INCORP (NON-S-PHASE), Method: AUTORADIOGRAPHY",active; positive
same,mutagenic call,"Test System: UDS RODENT HEPATOCYTES, Strain/Indicator: THY INCORP (NON-S-PHASE), Method: LIQUID SCINTILLATION COUNTING",active; positive
same,mutagenic call,"Test System: UDS, Strain/Indicator: HEPG2/THYMIDINE INCORPORATION, Metabolic Activation: NONE, Method: AUTORADIOGRAPHY",active; positive
